For one molecule, inhibition results are on record in ChEMBL document CHEMBL4190187, “Discovery of pyrazolopyrimidine derivatives as novel inhibitors of ataxia telangiectasia and rad3 related protein (ATR)” (Bioorg Med Chem Lett, 2017).

Assay [1] deals with Dual specificity tyrosine-phosphorylation-regulated kinase 3 (Homo sapiens) (UniProt O43781). Put plainly: Inhibition of recombinant full-length human DYRK3 at 1 uM using RRRFRPASPLRGPPK as substrate after 40 mins in presence of [gamma-33P]ATP by scintillation counting method.
Assay [2] addresses Serine/threonine-protein kinase PAK 6 (Homo sapiens) (UniProt Q9NQU5). Put plainly: Inhibition of recombinant human PAK6 (382 to end residues) at 1 uM using RRRLSFAEPG as substrate after 40 mins in presence of [gamma-33P]ATP by scintillation counting method.
Assay [3] addresses NUAK family SNF1-like kinase 1 (Homo sapiens) (UniProt O60285). As to the kind of experiment: Inhibition of recombinant human ARK5 (2 to end residues) at 1 uM using KKKVSRSGLYRSPSMPENLNRPR as substrate after 40 mins in presence of [gamma-33P]ATP by scintillation counting method.
The target in assay [4] is Activated CDC42 kinase 1 (Homo sapiens) (UniProt Q07912). As to the kind of experiment: Inhibition of recombinant human ACK1 (1 to 389 residues) at 1 uM using EFPIYDFLPAKKK as substrate after 40 mins in presence of [gamma-33P]ATP by scintillation counting method.
In assay [5] the target is Ephrin type-A receptor 5 (Homo sapiens) (UniProt P54756). As to the kind of experiment: Inhibition of recombinant human EPHA5 (655 to 956 residues) at 1 uM using poly(Glu,Tyr) 4:1 as substrate after 40 mins in presence of [gamma-33P]ATP by scintillation counting method.
The target in assay [6] is Myosin-IIIb (Homo sapiens) (UniProt Q8WXR4). Put plainly: Inhibition of recombinant human MYO3B (1 to 326 residues) at 1 uM using RLGRDKYKTLRQIRQ as substrate after 40 mins in presence of [gamma-33P]ATP by scintillation counting method.
In assay [7] the target is Mast/stem cell growth factor receptor Kit (Homo sapiens) (UniProt P10721). As to the kind of experiment: Inhibition of recombinant human cKit (544 to end residues) at 1 uM using poly(Glu,Tyr) 4:1 as substrate after 40 mins in presence of [gamma-33P]ATP by scintillation counting method.
In assay [8] the target is Calcium/calmodulin-dependent protein kinase type II subunit delta (Homo sapiens) (UniProt Q13557). As to the kind of experiment: Inhibition of recombinant full-length human CAMK2delta at 1 uM using […] after 40 mins in presence of [gamma-33P]ATP by scintillation counting method.
In assay [9] the target is Tyrosine-protein kinase Mer (Homo sapiens) (UniProt Q12866). As to the kind of experiment: Inhibition of recombinant human MER (557 to 882 residues) at 1 uM using GGMEDIYFEFMGGKKK as substrate after 40 mins in presence of [gamma-33P]ATP by scintillation counting method.
Assay [10] has as its target PI3-kinase p110-alpha/p85-alpha (Homo sapiens) (UniProt P27986+P42336). Put plainly: Inhibition of recombinant full-length human p110a/p85a at 1 uM using phosphatidylinositol 4,5-bisphosphate as substrate after 40 mins in presence of [gamma-33P]ATP by scintillation counting method. The assay is classed as protein-complex assay.
Assay [11] relates to Serine/threonine-protein kinase Chk2 (Homo sapiens), O96017 [I157T]. Put plainly: Inhibition of recombinant human CHK2 I157T mutant (5 to end residues) at 1 uM using KKKVSRSGLYRSPSMPENLNRPR as substrate after 40 mins in presence of [gamma-33P]ATP by scintillation counting method.
Assay [12] deals with Serine/threonine-protein kinase VRK2 (Homo sapiens) (UniProt Q86Y07). Put plainly: Inhibition of recombinant human VRK2 (1 to 336 residues) at 1 uM using casein as substrate after 40 mins in presence of [gamma-33P]ATP by scintillation counting method.
Assay [13] relates to Hepatocyte growth factor receptor (Homo sapiens), P08581 [D1246N]. Put plainly: Inhibition of recombinant human Met D1246N mutant (974 to end residues) at 1 uM using KKKGQEEEYVFIE as substrate after 40 mins in presence of [gamma-33P]ATP by scintillation counting method.
The subject of assay [14] is Serine/threonine-protein kinase Chk2 (Homo sapiens), O96017 [R145W]. Put plainly: Inhibition of recombinant human CHK2 R145W mutant (5 to end residues) at 1 uM using KKKVSRSGLYRSPSMPENLNRPR as substrate after 40 mins in presence of [gamma-33P]ATP by scintillation counting method.
Assay [15] has as its target Serine/threonine-protein kinase 26 (Homo sapiens) (UniProt Q9P289). Put plainly: Inhibition of recombinant human MST4 (4 to 304 residues) at 1 uM using RLGRDKYKTLRQIRQ as substrate after 40 mins in presence of [gamma-33P]ATP by scintillation counting method.
Assay [16] deals with Cyclin-dependent kinase-like 1 (Homo sapiens) (UniProt Q00532). Put plainly: Inhibition of recombinant human CDKL1 (1 to 303 residues) at 1 uM using RRRFRPASPLRGPPK as substrate after 120 mins in presence of [gamma-33P]ATP by scintillation counting method.
Assay [17] concerns the target Casein kinase II subunit alpha (Homo sapiens) (UniProt P68400). Put plainly: Inhibition of recombinant full-length human CK2alpha1 at 1 uM using RRRDDDSDDD as substrate after 40 mins in presence of [gamma-33P]ATP by scintillation counting method.
In assay [18] the target is Receptor-type tyrosine-protein kinase FLT3 (Homo sapiens) (UniProt P36888). As to the kind of experiment: Inhibition of recombinant human Flt3 (564 to end residues) at 1 uM using EAIYAAPFAKKK as substrate after 40 mins in presence of [gamma-33P]ATP by scintillation counting method.
Assay [19] addresses Fibroblast growth factor receptor 3 (Homo sapiens) (UniProt P22607). Put plainly: Inhibition of recombinant human FGFR3 (447 to 761 residues) at 1 uM using poly(Glu,Tyr) 4:1 as substrate after 40 mins in presence of [gamma-33P]ATP by scintillation counting method.
The target in assay [20] is Serine/threonine-protein kinase PLK1 (Homo sapiens) (UniProt P53350). Put plainly: Inhibition of recombinant full-length human Plk1 at 1 uM using casein as substrate after 40 mins in presence of [gamma-33P]ATP by scintillation counting method.
In assay [21] the target is Dual specificity mitogen-activated protein kinase kinase 2 (Homo sapiens) (UniProt P36507). As to the kind of experiment: Inhibition of recombinant full-length human MEK2 at 1 uM using MBP as substrate after 40 mins in presence of [gamma-33P]ATP by scintillation counting method.
The target in assay [22] is Proto-oncogene tyrosine-protein kinase receptor Ret (Homo sapiens) (UniProt P07949). Put plainly: Inhibition of recombinant human RET (658 to end residues) at 1 uM using KKKSPGEYVNIEFG as substrate after 40 mins in presence of [gamma-33P]ATP by scintillation counting method.
The target of assay [23] is High affinity nerve growth factor receptor (Homo sapiens) (UniProt P04629). Put plainly: Inhibition of recombinant human TrkA (440 to end residues) at 1 uM using KKKSPGEYVNIEFG as substrate after 40 mins in presence of [gamma-33P]ATP by scintillation counting method.

Sequence of Serine/threonine-protein kinase VRK2 (Homo sapiens) (Q86Y07 whole entry, the tested form may be a part): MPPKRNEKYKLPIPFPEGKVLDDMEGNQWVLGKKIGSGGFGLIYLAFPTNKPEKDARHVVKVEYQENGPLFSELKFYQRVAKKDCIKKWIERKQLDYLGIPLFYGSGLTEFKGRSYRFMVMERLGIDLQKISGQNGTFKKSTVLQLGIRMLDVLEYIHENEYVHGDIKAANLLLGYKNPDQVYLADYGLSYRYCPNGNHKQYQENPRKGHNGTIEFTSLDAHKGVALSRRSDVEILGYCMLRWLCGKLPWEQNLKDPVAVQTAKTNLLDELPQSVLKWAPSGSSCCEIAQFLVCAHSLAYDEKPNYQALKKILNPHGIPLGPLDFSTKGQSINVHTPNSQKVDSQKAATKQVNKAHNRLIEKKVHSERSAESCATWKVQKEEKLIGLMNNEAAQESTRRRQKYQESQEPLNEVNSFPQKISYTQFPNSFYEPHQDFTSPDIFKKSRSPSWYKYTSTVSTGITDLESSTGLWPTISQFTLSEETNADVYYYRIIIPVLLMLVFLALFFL
Sequence of Proto-oncogene tyrosine-protein kinase receptor Ret (Homo sapiens) (P07949 whole entry): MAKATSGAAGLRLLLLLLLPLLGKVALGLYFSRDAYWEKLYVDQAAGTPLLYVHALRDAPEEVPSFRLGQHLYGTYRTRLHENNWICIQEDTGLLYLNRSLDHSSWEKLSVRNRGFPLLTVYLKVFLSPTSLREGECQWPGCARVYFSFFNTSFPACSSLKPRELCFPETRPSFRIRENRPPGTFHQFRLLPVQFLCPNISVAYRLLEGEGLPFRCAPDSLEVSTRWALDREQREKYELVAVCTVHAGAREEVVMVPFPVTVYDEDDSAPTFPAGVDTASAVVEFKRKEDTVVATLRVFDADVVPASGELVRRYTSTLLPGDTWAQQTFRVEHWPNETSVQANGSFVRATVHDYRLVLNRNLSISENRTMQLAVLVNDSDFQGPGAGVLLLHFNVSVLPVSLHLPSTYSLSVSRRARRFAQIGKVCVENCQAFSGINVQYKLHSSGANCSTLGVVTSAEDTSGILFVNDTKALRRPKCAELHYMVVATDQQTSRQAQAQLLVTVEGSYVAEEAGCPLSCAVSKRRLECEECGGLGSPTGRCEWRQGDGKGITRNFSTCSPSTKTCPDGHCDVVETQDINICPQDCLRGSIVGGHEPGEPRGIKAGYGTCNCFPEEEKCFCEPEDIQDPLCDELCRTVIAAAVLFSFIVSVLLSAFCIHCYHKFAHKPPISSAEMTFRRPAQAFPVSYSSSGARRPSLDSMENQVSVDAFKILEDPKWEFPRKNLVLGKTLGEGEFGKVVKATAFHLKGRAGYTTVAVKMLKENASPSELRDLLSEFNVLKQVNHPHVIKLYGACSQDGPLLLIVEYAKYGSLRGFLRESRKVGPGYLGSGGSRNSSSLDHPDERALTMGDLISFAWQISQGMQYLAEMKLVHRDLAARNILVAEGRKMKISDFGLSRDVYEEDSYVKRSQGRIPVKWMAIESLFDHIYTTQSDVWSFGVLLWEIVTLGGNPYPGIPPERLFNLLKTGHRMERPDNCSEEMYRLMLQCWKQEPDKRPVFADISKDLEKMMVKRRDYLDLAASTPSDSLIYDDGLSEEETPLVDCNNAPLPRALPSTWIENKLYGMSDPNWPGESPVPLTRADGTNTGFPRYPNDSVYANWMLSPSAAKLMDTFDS
Sequence of Ephrin type-A receptor 5 (Homo sapiens) (P54756 whole entry, the tested form may be a part): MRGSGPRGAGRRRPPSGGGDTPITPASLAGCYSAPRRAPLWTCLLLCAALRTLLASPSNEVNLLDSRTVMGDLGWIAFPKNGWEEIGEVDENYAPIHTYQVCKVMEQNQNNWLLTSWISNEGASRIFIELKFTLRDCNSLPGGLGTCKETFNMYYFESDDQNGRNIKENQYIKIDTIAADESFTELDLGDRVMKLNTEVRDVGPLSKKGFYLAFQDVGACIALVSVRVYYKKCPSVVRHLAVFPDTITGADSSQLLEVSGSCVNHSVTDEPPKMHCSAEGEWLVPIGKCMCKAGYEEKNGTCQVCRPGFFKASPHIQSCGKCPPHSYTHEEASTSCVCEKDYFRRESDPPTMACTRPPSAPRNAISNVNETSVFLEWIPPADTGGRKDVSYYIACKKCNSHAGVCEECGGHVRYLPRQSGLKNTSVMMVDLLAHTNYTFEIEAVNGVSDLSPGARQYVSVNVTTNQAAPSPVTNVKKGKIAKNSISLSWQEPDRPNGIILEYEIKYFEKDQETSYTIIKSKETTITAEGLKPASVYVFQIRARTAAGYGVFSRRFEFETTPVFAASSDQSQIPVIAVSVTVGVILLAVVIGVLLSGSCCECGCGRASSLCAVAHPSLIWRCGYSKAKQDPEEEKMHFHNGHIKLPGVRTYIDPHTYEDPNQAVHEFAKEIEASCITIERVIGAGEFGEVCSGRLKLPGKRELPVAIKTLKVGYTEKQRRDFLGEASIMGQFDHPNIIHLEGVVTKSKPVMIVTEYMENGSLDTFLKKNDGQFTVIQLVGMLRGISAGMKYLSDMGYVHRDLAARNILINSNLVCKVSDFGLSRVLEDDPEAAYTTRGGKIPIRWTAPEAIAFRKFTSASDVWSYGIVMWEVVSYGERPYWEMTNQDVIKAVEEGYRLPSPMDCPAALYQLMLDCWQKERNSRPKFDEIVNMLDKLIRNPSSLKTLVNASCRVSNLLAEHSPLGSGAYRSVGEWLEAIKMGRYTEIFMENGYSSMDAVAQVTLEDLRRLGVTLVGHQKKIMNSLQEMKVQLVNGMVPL
Sequence of NUAK family SNF1-like kinase 1 (Homo sapiens) (O60285 whole entry, the tested form may be a part): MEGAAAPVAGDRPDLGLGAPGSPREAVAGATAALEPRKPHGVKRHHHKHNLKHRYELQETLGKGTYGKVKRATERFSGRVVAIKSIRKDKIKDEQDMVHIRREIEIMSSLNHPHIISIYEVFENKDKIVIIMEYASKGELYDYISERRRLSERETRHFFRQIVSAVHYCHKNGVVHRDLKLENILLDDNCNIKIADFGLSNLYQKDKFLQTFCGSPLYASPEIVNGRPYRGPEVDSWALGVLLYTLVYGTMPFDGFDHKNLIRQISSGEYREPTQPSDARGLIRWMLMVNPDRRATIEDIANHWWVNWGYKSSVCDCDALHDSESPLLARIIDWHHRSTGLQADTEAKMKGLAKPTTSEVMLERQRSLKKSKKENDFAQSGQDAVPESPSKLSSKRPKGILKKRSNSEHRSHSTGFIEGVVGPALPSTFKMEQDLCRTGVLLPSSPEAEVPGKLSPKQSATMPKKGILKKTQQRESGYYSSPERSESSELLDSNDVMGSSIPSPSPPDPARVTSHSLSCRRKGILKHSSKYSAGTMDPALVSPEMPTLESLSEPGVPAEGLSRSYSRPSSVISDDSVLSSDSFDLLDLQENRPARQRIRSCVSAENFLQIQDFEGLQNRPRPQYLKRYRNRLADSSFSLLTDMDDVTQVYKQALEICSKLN
Sequence of Calcium/calmodulin-dependent protein kinase type II subunit delta (Homo sapiens) (Q13557 whole entry, the tested form may be a part): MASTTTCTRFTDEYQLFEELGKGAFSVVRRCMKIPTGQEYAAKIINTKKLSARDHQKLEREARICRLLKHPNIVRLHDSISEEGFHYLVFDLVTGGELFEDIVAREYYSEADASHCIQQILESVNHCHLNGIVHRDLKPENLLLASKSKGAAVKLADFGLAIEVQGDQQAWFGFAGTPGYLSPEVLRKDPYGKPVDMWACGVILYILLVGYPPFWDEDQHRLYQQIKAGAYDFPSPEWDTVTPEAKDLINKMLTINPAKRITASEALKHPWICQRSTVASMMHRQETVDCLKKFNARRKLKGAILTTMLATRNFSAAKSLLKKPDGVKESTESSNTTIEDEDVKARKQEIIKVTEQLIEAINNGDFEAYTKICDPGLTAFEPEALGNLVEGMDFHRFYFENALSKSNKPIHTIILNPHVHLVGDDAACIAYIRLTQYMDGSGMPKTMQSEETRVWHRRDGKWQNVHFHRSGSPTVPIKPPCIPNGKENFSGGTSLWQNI
Sequence of Serine/threonine-protein kinase PAK 6 (Homo sapiens) (Q9NQU5 whole entry, looked up): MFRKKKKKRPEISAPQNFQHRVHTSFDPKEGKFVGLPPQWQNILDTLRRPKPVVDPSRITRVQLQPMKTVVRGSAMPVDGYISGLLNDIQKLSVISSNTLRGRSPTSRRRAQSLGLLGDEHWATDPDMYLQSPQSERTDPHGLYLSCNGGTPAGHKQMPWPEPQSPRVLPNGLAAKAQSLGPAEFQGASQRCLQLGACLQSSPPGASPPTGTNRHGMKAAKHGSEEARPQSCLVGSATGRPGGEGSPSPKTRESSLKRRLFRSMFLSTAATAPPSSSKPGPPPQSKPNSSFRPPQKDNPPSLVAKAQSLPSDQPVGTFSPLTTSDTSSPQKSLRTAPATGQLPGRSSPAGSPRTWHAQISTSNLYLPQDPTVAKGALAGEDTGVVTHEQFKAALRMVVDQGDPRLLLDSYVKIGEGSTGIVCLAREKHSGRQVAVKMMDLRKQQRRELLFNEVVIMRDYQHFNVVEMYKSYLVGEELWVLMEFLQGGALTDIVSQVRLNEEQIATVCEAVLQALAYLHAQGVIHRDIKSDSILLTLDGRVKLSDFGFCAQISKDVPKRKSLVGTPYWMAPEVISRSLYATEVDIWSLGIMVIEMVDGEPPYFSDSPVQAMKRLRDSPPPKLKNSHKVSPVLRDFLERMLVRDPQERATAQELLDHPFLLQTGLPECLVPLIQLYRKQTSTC
Sequence of Serine/threonine-protein kinase Chk2 (Homo sapiens), O96017 [I157T] (O96017 whole entry I157T, the tested form may be a part): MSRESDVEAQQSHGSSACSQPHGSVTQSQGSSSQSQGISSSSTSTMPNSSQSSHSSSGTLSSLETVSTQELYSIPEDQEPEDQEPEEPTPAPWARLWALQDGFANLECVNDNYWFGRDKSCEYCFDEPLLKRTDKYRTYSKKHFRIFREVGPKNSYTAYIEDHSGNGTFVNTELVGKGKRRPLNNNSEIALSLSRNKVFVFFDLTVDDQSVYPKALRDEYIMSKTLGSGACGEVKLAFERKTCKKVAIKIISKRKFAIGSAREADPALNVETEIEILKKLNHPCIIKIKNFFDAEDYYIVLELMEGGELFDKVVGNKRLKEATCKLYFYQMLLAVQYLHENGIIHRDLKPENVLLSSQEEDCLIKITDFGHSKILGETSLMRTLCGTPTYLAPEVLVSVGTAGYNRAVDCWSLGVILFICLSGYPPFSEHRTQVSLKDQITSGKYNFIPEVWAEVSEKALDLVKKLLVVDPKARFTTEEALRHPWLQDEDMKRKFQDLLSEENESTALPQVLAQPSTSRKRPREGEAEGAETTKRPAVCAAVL

With `CS(=O)(=O)c1ccc(-n2nc(-c3cnc4[nH]ccc4c3)c3c(N)ncnc32)cc1`, the inhibition in assay [1] is -10%; in [2] it was 7%; in assay [3], 15%; in assay [4] it was 44%; in assay [5], 8%; in assay [6] it was 5%. For the same molecule, the inhibition was 4% in assay [7]; 3% in assay [8]; -3% in [9]; 6% in assay [10]; -2% in assay [11]; 0% in assay [12]. For the same molecule, the inhibition in [13] was 3%; in assay [14] it was 4%; in [15], -3%; in assay [16], 3%; in [17] it was 19%; in assay [18], 16%. Moreover, the inhibition is 5% in [19]; -1% in assay [20]; -7% in [21]; 95% in assay [22]; 2% in assay [23].

A word on the inhibition: it is the change of the read-out against control, counted positive when it falls.
